Experimental data reported in patent US20260325465A1, “SHP-1 INHIBITORS FOR TREATING CANCER” (MDX MANAGEMENT LLC, priority 2022, published 2026).
“Also recorded” adds a separate entry of the source.

Experiments:
[1] = test system: PTP/SHP-1 activity in KPC tumor; experiment: PTP/SHP-1 activity in KPC tumor in vivo; parameters: species or system murine; details: therapeutic treatment of KPC tumor
[2] = test system: Human monocyte-derived macrophages; experiment: Human monocyte-derived macrophage response in tumor milieu configurations; type: cell-based; details: co-cultured with cancer cells (configuration 3)
Description: Mechanism by which tumor cells inhibit macrophage proinflammatory response in TME was studied. As shown in panel A of FIG. 19, macrophage responses were assayed in a tumor milieu: Human monocyte-derived macrophages (MØ) were cultured alone (configuration 1), cultured in the presence of cancer cells-conditioned medium (50%) that contained cancer cell secreted factors (secretome; configuration 2), or co-cultured with cancer cells (cell “touch” model; configuration 3), or co-cultured with cancer cells that were placed in a transwell (0.4 μm) without “touching” MØ(configuration 4). Macrophages in these settings were treated with proinflammatory stimuli TLR agonist R848 (l g/ml), R848 plus IFNγ (40 ng/ml), or the sting activator MSA-2 (10 μg/ml).

[3] = test system: PTP activity in macrophages; experiment: PTP activity in macrophages co-cultured with cancer cells and stimulated with IFNγ/LPS or TLR agonists; type: cell-based; parameters: concentration or dose not given beside the values; details: induced by IFNγ/LPS or TLR agonists, with cancer cell ligation, 30 min, 37 °C
Description: (§1) FIGS. 3A-3E depict modulation of SHP-1 activity in proinflammatory macrophages in cancer. Macrophages co-cultured with cancer cells were stimulated with IFNγ/LPS or TLR agonists (αTLR) comprising CpG, polycytidylic acid (i.e., PolyI:C) and R848 (each 0.4 μg/ml) for 30 min (37 °C) in the presence or the absence of different SHP-1 or SHP-2 inhibitor or activator, followed by cell lysis and assays of PTP activity. FIG. 3A depicts SHP-1 activity regulation mechanisms. […] FIG. 3E depicts that PKCθ negatively regulates SHP-1 activity at a moderate level.

[4] = test system: SHP-1; experiment: SHP-1 activity in macrophages under proinflammatory stimulation and cancer cell ligation; type: cell-based; details: IFNγ/LPS stimulation, cancer cell ligation
Description: FIGS. 2A-2G depict that the inhibition of SHP-1 enhances macrophage proinflammatory response, antigen presentation and phagocytosis in a tumor milieu. FIG. 2A and FIG. 2B depict that SHP-1 activity in macrophages is triggered by proinflammatory stimulation and the extracellular cancer cell ligation (“touching”) of macrophages (green bar in FIG. 2A). […] The SHP-2 inhibitor SHP099 (1 μg/ml) was used in assays. FIG. 2C depicts the inhibition of SHP-1 by TPI-1 dose-dependently recovers IFNγ/LPS-induced activation of STAT1 (p-STAT1) and Erk1/2 (p-Erk1/2) de-activated by SHP-1 (red line). FIG. 2D and FIG. 2E depict that the inhibition of SHP-1 in macrophages by TPI-1 enhances production of proinflammatory cytokines (FIG. 2D) and expression of immunogenic antigen presentation machinery (FIG. 2E) by IFNγ/LPS in a tumor milieu. […] The SHP-1 and SHP-2 inhibitors TPI-1 and SHP099, respectively, was used at 1 μg/ml in assays.
as §1
In addition to TPI-1, several other SHP-1 inhibitors such as PTP inhibitor-I, PTP inhibitor-III, and recently reported vitamin E (9, 10) and phomoxanthone A and B (P×A and P×B) (11) were tested. Given that PKCθ modulates SHP-1 activity through phosphorylating Ser591 (12, 13), PKCθ inhibitor and activator were also tested in various assays.

[5] = test system: macrophages; experiment: Macrophage cytokine production under immunosuppressive or proinflammatory stimulation with cancer cell ligation; type: cell-based
Excerpt: FIGS. 6A-6D depict that the inhibition of SHP-1 promotes anti-tumor effects or pro-tumor effects under different circumstances. FIG. 6A depicts that intratumoral macrophages upregulate expression of iRs (Pir-B, Siglec E, F and G, and SIRPα) along with tumor progression to late-stage large sizes. KPC pancreatic tumors of small sizes (<150 mm^3) and those grown to larger sizes (>800 mm^3) were dissociated to single cells, followed by flow cytometry analyses for cell surface protein expression on macrophages (gated F4/80+). FIG. 6B depicts that the inhibition of SHP-1 alone promotes TME immunosuppression. Excised MC38 solid tumor cubes were treated with SHP-1 inhibitor TPI-1 (100 nM) or vehicle (DMSO) in a cell culture setting. After 24 h, tumor secreting cytokines into the culture medium were assayed by ELISA.
The SHP-1 activity in non-therapeutic solid tumors is low (see FIGS. 7A-7D), and this low activity inhibits immunosuppressive receptor signaling. […] In parallel experiments, the same SHP-1 inhibitors augmented macrophage responses to the M1 stimuli IFNγ and LPS and enhanced proinflammatory cytokine production.

[6] = test system: TLR7/8 overexpressing pancreatic cancer cell line; details: stimulation of TLR7/8; cited from earlier work
[7] = test system: malignant melanoma and advanced malignancies; details: cited from earlier work
[8] = test system: macrophages; experiment: Macrophage antigen presentation and proinflammatory response in presence of tumor cells with or without iShp1; type: cell-based; details: for pro-inflammatory activation of macrophages: combined with iShp1 (TPI-1), tumor milieu
Description: FIGS. 16A-16D depicts activation of macrophage proinflammatory response and antigen presentation in a tumor milieu by SHP-1 inhibition (iShp1) combination regimens. FIG. 16A depicts the testing system. FIG. 16B and FIG. 16C depict effects of interferons with or without TPI-1. FIG. 16D depicts effects of various agents including IL-1 family cytokines (IL-1, IL-18), TNFα and TLR ligands combined with TPI-1.
In vitro macrophages were assayed in the presence of tumor cells that ligate macrophage iRs with or without inhibition of SHP-1 (iShp1) by TPI-1. See the testing system in FIG. 16A.

[9] = test system: SHP-1; experiment: SHP-1 binding to macrophage iRs with phosphorylated ITIMs; type: cell-based; details: macrophages stimulated
Excerpt: Proinflammatory signal-induced Src family TK(s) mediate phosphorylation in the cytoplastic domain ITIMs that dock SHP-1 leading to SHP-1 activation.

[10] = test system: SHP-2; experiment: SHP-2 binding to macrophage iRs with phosphorylated ITIMs; type: cell-based; details: macrophages stimulated

Molecule: Nc1nc2c(ncn2[C@@H]2O[C@@H]3COP(=O)(O)O[C@H]4[C@@H](O)[C@H](n5cnc6c(N)ncnc65)O[C@@H]4COP(=O)(O)O[C@@H]2[C@@H]3O)c(=O)[nH]1 [2′3′-cGAMP]
- PTP/SHP-1 activity induced in tumor [1]: induced spikes of PTP activities

Molecule: Nc1ncn([C@@H]2O[C@H](CO)[C@@H](O)[C@H]2O)c(=O)n1 [Azacitidine (AZA), Azacitidine]
- PTP/SHP-1 activity induced in tumor [1]: spikes of SHP-1 activity are induced

Molecule: COc1cc2cc(C(=O)CCC(=O)O)sc2cc1OC [MSA-2]
- macrophage proinflammatory response in co-culture with cancer cells [2]: abolishment of proinflammatory response and enhanced immunosuppression with high IL-10 and TGFβ production

Molecule: O=C1C(=NNc2ccc(S(=O)(=O)O)cc2)C(c2ccc([N+](=O)[O-])cc2)=NN1c1ccccc1 [PHPS1]
- PTP activity diminished in macrophages [3]: < 10%

Molecule: CCCCCCCCCCCCCC(=O)O[C@@H]1[C@@H](C)[C@@]2(O)[C@@H](C=C(CO)C[C@]3(O)C(=O)C(C)=C[C@@H]23)[C@@H]2C(C)(C)[C@]12OC(C)=O [PMA]
- SHP-1 activity in macrophages (effect in words) [4]: moderately inhibited SHP-1; also recorded: reduced SHP-1 activity

Molecule: O=C(CBr)c1ccc(O)cc1 [PTP-I]
- PTP activity diminished in macrophages [3]: > 70%
- macrophage production of IL-12 and TNFα ([5]; IFNγ and LPS): dose-dependently augmented macrophage proinflammatory response with increased IL-12 and TNFα
- macrophage production of IL-10 and TGFβ ([5]; IL-4/13 or IL-10 stimulation): dose-dependently augmented

Molecule: CCOCc1nc2c(N)nc3ccccc3c2n1CC(C)(C)O [R848]
- macrophage proinflammatory response in co-culture with cancer cells [2]: abolishment of proinflammatory response and enhanced immunosuppression with high IL-10 and TGFβ production
- cell proliferation and chemosensitivity [6]: increased cell proliferation and reduced chemosensitivity

Molecule: CC1(N)CCN(c2cnc(-c3cccc(Cl)c3Cl)c(N)n2)CC1 [SHP099]
- PTP activity diminished in macrophages [3]: < 10%

Molecule: O.O.O.O.O.O.O.O.O.O=C([O-])[C@@H]1[O][Sb]2([O-])([O][Sb]34([OH])[O][C@H]([C@H](O)CO)[C@H]([O]3)[C@H](C(=O)[O-])[O]4)[O][C@H]([C@H](O)CO)[C@@H]1[O]2.[Na+].[Na+].[Na+] [SSG, sodium stibogluconate]
- effect against tumor development ([7]; combination with interferons, with or without chemotherapy): no effect was seen against tumor development
- most common toxic side-effects, share of patients ([7]; thrombocytopenia, elevated serum lipase, fatigue, fever, chills, anemia, hypokalemia, pancreatitis, skin rash): up to 68 % of patients

Molecule: CC(C)[C@@](C)(O)[C@@H]1CN(c2nc(-c3[nH]nc4ncccc34)c(F)cc2Cl)CCN1 [VTX27]
- SHP-1 activity in macrophages (effect in words) [4]: increased SHP-1 activity

Molecule: IFNα
- antigen presentation and proinflammatory response ([8]; alone, without and with iShp1 (TPI-1)): did not induce antigen presentation or proinflammatory response

Molecule: IL-1β: IL-1 family cytokine
- pro-inflammatory activation of macrophages [8]: exhibited capacities of pro-inflammatory activation of macrophages

Molecule: IL-4: immunosuppressive cytokine
- binding of SHP-1 to iR ITIMs [9]: leads to binding of SHP-1
- binding of SHP-2 to iR ITIMs [10]: SHP-2 binding is dominated

Molecule: IL-6: activating cytokine
- binding of SHP-1 to iR ITIMs [9]: SHP-1 binding occurs exclusively under proinflammatory conditions

Molecule: IL-10: immunosuppressive cytokine
- binding of SHP-1 to iR ITIMs [9]: leads to binding of SHP-1
- binding of SHP-2 to iR ITIMs [10]: SHP-2 binding is dominated

Molecule: IL-18: IL-1 family cytokine
- pro-inflammatory activation of macrophages [8]: exhibited capacities of pro-inflammatory activation of macrophages

Molecule: Phomoxanthone A [Phomoxanthone A (PXA)]
- SHP-1 activity in macrophages (effect in words) [4]: dose-dependently, moderately inhibited SHP-1 activity

Molecule: TGFβ: immunosuppressive cytokine
- binding of SHP-1 to iR ITIMs [9]: leads to binding of SHP-1
- binding of SHP-2 to iR ITIMs [10]: SHP-2 binding is dominated

Molecule: TNFα
- pro-inflammatory activation of macrophages [8]: exhibited capacities of pro-inflammatory activation of macrophages
- binding of SHP-1 to iR ITIMs [9]: SHP-1 binding occurs exclusively under proinflammatory conditions

Molecule: lipopolysaccharide [LPS]
- binding of SHP-1 to iR ITIMs [9]: SHP-1 binding occurs exclusively under proinflammatory conditions

Molecule: pervanadate
- PTP activity diminished in macrophages [3]: > 70%

Molecule: polycytidylic acid [PolyIC]
- binding of SHP-1 to iR ITIMs [9]: SHP-1 binding occurs exclusively under proinflammatory conditions

B1: IFNγ: type II interferon (protein, UniProt P01579 24-161, looked up)
Interferon gamma: QDPYVKEAENLKKYFNAGHSDVADNGTLFLGILKNWKEESDRKIMQSQIVSFYFKLFKNFKDDQSIQKSVETIKEDMNVKFFNSNKKKRDDFEKLTNYSVTDLNVQRKAIHELIQVMAELSPAAKTGKRKRSQMLFRG
- antigen presentation ([8]; plus iShp1 (TPI-1)): significantly increased antigen presentation
- proinflammatory cytokine production ([8]; plus iShp1 (TPI-1)): did not elicit proinflammatory cytokine production
- binding of SHP-1 to iR ITIMs [9]: SHP-1 binding occurs exclusively under proinflammatory conditions
